{"source": "patent US12391686B2", "about": "“Compounds and uses thereof” (Foghorn Therapeutics Inc., priority 2019, dated 2025)", "data": [{"target": "T1, Nanoluciferase-BRD9 fusion protein (3×FLAG-NLuc-BRD9) in SYO-1 cells (Homo sapiens, UniProt Q9H8M2)", "T1 construct": "expressed in transfected cells; host or cells: SYO-1", "T1 sequence (Q9H8M2 1-597)": "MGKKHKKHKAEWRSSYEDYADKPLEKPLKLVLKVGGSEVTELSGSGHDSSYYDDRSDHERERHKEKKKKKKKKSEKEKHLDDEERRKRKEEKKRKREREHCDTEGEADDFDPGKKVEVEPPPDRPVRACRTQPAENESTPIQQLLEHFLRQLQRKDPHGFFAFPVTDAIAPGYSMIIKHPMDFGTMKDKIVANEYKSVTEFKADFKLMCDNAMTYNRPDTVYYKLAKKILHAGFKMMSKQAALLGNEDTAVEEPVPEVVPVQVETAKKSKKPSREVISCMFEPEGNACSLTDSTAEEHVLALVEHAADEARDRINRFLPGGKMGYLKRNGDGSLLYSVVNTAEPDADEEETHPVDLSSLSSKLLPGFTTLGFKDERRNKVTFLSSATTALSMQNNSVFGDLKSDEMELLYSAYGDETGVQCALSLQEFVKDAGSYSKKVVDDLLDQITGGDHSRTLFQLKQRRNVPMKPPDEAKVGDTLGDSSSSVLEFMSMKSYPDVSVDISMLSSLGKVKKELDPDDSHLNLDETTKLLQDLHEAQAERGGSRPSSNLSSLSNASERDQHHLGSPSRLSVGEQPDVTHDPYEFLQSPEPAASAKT", "test": "SYO1 BRD9 NanoLuc Degradation Assay", "assay_type": "cell-based", "settings": "Table 6C; SYO-1 cells expressing 3×FLAG-NLuc-BRD9, 6 hours incubation, 1 μM top dose; read-out: SYO1 BRD9-NanoLuc degradation IC50", "summary_of_the_method": "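Stable 3×FLAG-NLuc-BRD9 SYO-1 line, 8000 cells/well, dosed day 1 with 10-point 3-fold dilutions (1 μM final top, duplicates) for 6 h. NanoLuc bioluminescence read with Nano-Glo; % inhibition relative to DMSO (high) and 1 μM reference BRD9 degrader (low) controls.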", "units": {"DC50": "nM"}, "values": [{"smiles": "COc1cc(-c2cn(C)c(=O)c3cnc(N(C)C)cc23)cc(OC)c1CN1CCC2(CC1)CC(N1CCN(C3CCC(=O)NC3=O)C(=O)C1)C2", "note": "(centres unmarked) [Compound D251]", "DC50": "≥ 1000"}, {"smiles": "COc1cc(-c2cn(C)c(=O)c3cnc(N(C)C)cc23)cc(OC)c1CN1CC2(CCC(N3CCN(C4CCC(=O)NC4=O)C(=O)C3)CC2)C1", "note": "(centres unmarked) [Compound D252]", "DC50": "10 to 100"}, {"smiles": "COc1cc(-c2cn(C)c(=O)c3cnc(N(C)C)cc23)cc(OC)c1CN1CCC(N2CCN(C3CCC(=O)NC3=O)C(=O)C2)CC1", "note": "(centres unmarked) [Compound D253]", "DC50": "≥ 1000"}, {"smiles": "[2H]C([2H])([2H])n1cc(-c2cc(OC)c(CN3[C@H](C)CN(c4ccc5c(c4)C(=O)N(C4CCC(=O)NC4=O)C5)C[C@H]3C)c(OC)c2)c2cc(OC)ncc2c1=O", "note": "(some centres unmarked) [Compound D254]", "DC50": "< 10"}, {"smiles": "COc1cc(-c2cn(C)c(=O)c3cnc(N(C)C)cc23)cc(OC)c1CN1CCN(c2ccc3c(c2)C(=O)N(C2CCC(=O)NC2=O)C3)CC1(C)C", "note": "(centres unmarked) [Compound D255]", "DC50": "< 10"}, {"smiles": "COc1cc(-c2cn(C)c(=O)c3cnc(N4CCC4)cc23)cc(OC)c1CN1CC(N(C)c2ccc3c(c2)C(=O)N(C2CCC(=O)NC2=O)C3)C1", "note": "(centres unmarked) [Compound D256]", "DC50": "< 10"}, {"smiles": "COc1cc(-c2cn(C)c(=O)c3cnc(N(C)C)cc23)cc(OC)c1C1CN(c2ccc3c(c2)C(=O)N(C2CCC(=O)NC2=O)C3)C1", "note": "(centres unmarked) [Compound D257]", "DC50": "< 10"}, {"smiles": "COc1cc2c(-c3cc(OC)c(CN4CCN(CCC5CCN(c6ccc7c(c6)C(=O)N(C6CCC(=O)NC6=O)C7)CC5)CC45CCC5)c(OC)c3)cn(C)c(=O)c2cn1", "note": "(centres unmarked) [Compound D258]", "DC50": "< 10"}, {"smiles": "COc1cc(-c2cn(C)c(=O)c3cnc(N4CCC4)cc23)cc(OC)c1CN1CC(CN2CCC3(CC2)CN(c2ccc4c(c2)C(=O)N(C2CCC(=O)N(C)C2=O)C4)C3)C1", "note": "(centres unmarked) [Compound D259]", "DC50": "≥ 1000"}, {"smiles": "COc1cc2c(-c3cc(OC)c(CN4CCN(c5ccc6c(c5)C(=O)N(C5CCC(=O)NC5=O)C6)CC4(C)C)c(OC)c3)cn(C)c(=O)c2cn1", "note": "(centres unmarked) [Compound D260]", "DC50": "< 10"}, {"smiles": "COc1cc(-c2cn(C)c(=O)c3cnc(N4CC(F)(F)C4)cc23)cc(OC)c1CN1CCC(CN2CCC3(CC2)CN(c2ccc4c(c2)C(=O)N(C2CCC(=O)N(C)C2=O)C4)C3)CC1", "note": "(centres unmarked) [Compound D261]", "DC50": "≥ 1000"}, {"smiles": "CN(C)c1cc2c(-c3ccc(N(C)C4CCN(c5ccc6c(c5)C(=O)N(C5CCC(=O)NC5=O)C6)CC4)cc3)cn(C)c(=O)c2cn1", "note": "(centres unmarked) [Compound D262]", "DC50": "< 10"}, {"smiles": "COc1cc(-c2cn(C)c(=O)c3cnc(C4CC4)cc23)cc(OC)c1CN1CC(C#Cc2ccc3c(c2)C(=O)N(C2CCC(=O)NC2=O)C3)C1", "note": "(centres unmarked) [Compound D263]", "DC50": "< 10"}, {"smiles": "CCc1cc(-c2cn(C)c(=O)c3cnc(N4CCC4)cc23)cc(OC)c1CN1CCC2(CC1)CN(c1ccc3c(c1)C(=O)N(C1CCC(=O)NC1=O)C3)C2", "note": "(centres unmarked) [Compound D264]", "DC50": "< 10"}, {"smiles": "COc1cc(-c2cn(C)c(=O)c3cnc(N(C)C)cc23)cc(OC)c1C1CCN(c2ccc3c(c2)C(=O)N(C2CCC(=O)NC2=O)C3)CC1", "note": "(centres unmarked) [Compound D265]", "DC50": "< 10"}, {"smiles": "COc1cc(-c2cn(C)c(=O)c3cnc(N(C)C)cc23)cc(OC)c1CN1CC(C#Cc2ccc3c(c2)C(=O)N(C2CCC(=O)NC2=O)C3)C1", "note": "(centres unmarked) [Compound D267]", "DC50": "< 10"}, {"smiles": "COc1cc(-c2cn(C)c(=O)c3cnc(N(C)C)cc23)cc(OC)c1CN1CC(N(C)c2ccc3c(c2)C(=O)N(C2CCC(=O)NC2=O)C3=O)C1", "note": "(centres unmarked) [Compound D268]", "DC50": "< 10"}, {"smiles": "COc1cc(-c2cn(C)c(=O)c3cnc(C4CC4)cc23)cc(OC)c1CN1CCC(C#Cc2ccc3c(c2)C(=O)N(C2CCC(=O)NC2=O)C3)CC1", "note": "(centres unmarked) [Compound D269]", "DC50": "< 10"}, {"smiles": "COc1cc(-c2cn(C)c(=O)c3cnc(N(C)C)cc23)cc(OC)c1CN1CCN(c2cnn(C3CCC(=O)NC3=O)c2)CC1", "note": "(centres unmarked) [Compound D270]", "DC50": "10 to 100"}, {"smiles": "COc1cc(-c2cn(C)c(=O)c3cnc(C4CC4)cc23)cc(OC)c1CN1CC(C#Cc2ccc3c(c2)CN(C2CCC(=O)NC2=O)C3=O)C1", "note": "(centres unmarked) [Compound D271]", "DC50": "< 10"}, {"smiles": "COc1cc(-c2cn(C)c(=O)c3cnc(C4CC4)cc23)cc(OC)c1CN1CCC(C#Cc2ccc3c(c2)C(=O)N(C2CCC(=O)NC2=O)C3=O)CC1", "note": "(centres unmarked) [Compound D272]", "DC50": "< 10"}, {"smiles": "COc1cc(-c2cn(C)c(=O)c3cnc(N(C)C)cc23)cc(OC)c1CN1CCC(C#Cc2ccc3c(c2)C(=O)N(C2CCC(=O)NC2=O)C3=O)CC1", "note": "(centres unmarked) [Compound D273]", "DC50": "< 10"}, {"smiles": "COc1cc(-c2cn(C)c(=O)c3cnc(N(C)C)cc23)cc(OC)c1-c1ccc2c(c1)C(=O)N(C1CCC(=O)NC1=O)C2", "note": "(centres unmarked) [Compound D274]", "DC50": "< 10"}, {"smiles": "COc1cc(-c2cn(C)c(=O)c3cnc(C4CC4)cc23)cc(OC)c1CN1CC(C#Cc2ccc3c(c2)C(=O)N(C2CCC(=O)NC2=O)C3=O)C1", "note": "(centres unmarked) [Compound D275]", "DC50": "< 10"}, {"smiles": "[2H]C([2H])([2H])n1cc(-c2cc(OC)c(CN3[C@H](C)CN(c4ccc5c(c4)C(=O)N(C4CCC(=O)NC4=O)C5)C[C@H]3C)c(OC)c2)c2cc(N(C)C)ncc2c1=O", "note": "(some centres unmarked) [Compound D276]", "DC50": "< 10"}, {"smiles": "COc1cc(-c2cn(C)c(=O)c3cnc(N(C)C)cc23)cc(OC)c1CN(C)c1ccc2c(c1)CN(C1CCC(=O)NC1=O)C2=O", "note": "(centres unmarked) [Compound D277]", "DC50": "< 10"}, {"smiles": "COc1cc(-c2cn(C)c(=O)c3cnc(N4CC(F)(F)C4)cc23)cc(OC)c1CN1CCN(c2ccc3c(c2)C(=O)N(C2CCC(=O)NC2=O)C3)CC1(C)C", "note": "(centres unmarked) [Compound D278]", "DC50": "< 10"}, {"smiles": "COc1cc(N(C)C2CCN(c3ccc4c(c3)C(=O)N(C3CCC(=O)NC3=O)C4)CC2)c(OC)cc1-c1cn(C)c(=O)c2cnc(N(C)C)cc12", "note": "(centres unmarked) [Compound D279]", "DC50": "< 10"}, {"smiles": "COc1cc(-c2cn(C)c(=O)c3cnc(N(C)C)cc23)cc(OC)c1CC1CCN(c2ccc3c(c2)C(=O)N(C2CCC(=O)NC2=O)C3)CC1", "note": "(centres unmarked) [Compound D280]", "DC50": "< 10"}, {"smiles": "COc1cc2c(-c3cc(OC)c(CN4[C@H](C)CN(c5ccc6c(c5)C(=O)N(C5CCC(=O)NC5=O)C6)C[C@H]4C)c(OC)c3)cn(C)c(=O)c2cn1", "note": "(some centres unmarked) [Compound D281]", "DC50": "< 10"}, {"smiles": "COc1cc2c(-c3cc(OC)c(CN4CCN(c5cccc(OC6CCC(=O)NC6=O)c5)CC4)c(OC)c3)cn(C)c(=O)c2cn1", "note": "(centres unmarked) [Compound D282]", "DC50": "10 to 100"}, {"smiles": "COc1cc(-c2nn(C)c(=O)c3cnc(N4CCC4)cc23)cc(OC)c1CN1CCC(CN2CCC3(CC2)CC(Oc2ccc4c(c2)C(=O)N(C2CCC(=O)NC2=O)C4)C3)CC1", "note": "(centres unmarked) [Compound D283]", "DC50": "100 to 1000"}, {"smiles": "COc1cc(-c2cn(C)c(=O)c3ccc(N(C)C)cc23)cc(OC)c1CN1CC(CN2CCC3(CC2)CN(c2ccc4c(c2)C(=O)N(C2CCC(=O)NC2=O)C4)C3)C1", "note": "(centres unmarked) [Compound D285]", "DC50": "≥ 1000"}, {"smiles": "COc1cc(-c2cn(C)c(=O)c3cnc(N4CCC4)nc23)cc(OC)c1CN1CCC(CN2CCC3(CC2)CC(Oc2ccc4c(c2)C(=O)N(C2CCC(=O)NC2=O)C4)C3)CC1", "note": "(centres unmarked) [Compound D286]", "DC50": "< 10"}, {"smiles": "COc1cc(-c2cn(C)c(=O)c3cc(F)ccc23)cc(OC)c1CN1CCC(CN2CCC3(CC2)CC(Oc2ccc4c(c2)C(=O)N(C2CCC(=O)NC2=O)C4)C3)CC1", "note": "(centres unmarked) [Compound D287]", "DC50": "< 10"}, {"smiles": "COc1cc2c(-c3cc(OC)c(CN4CCC(c5ccc6c(c5)C(=O)N(C5CCC(=O)NC5=O)C6)CC4)c(OC)c3)cn(C)c(=O)c2cn1", "note": "(centres unmarked) [Compound D288]", "DC50": "< 10"}, {"smiles": "COc1cc2c(-c3cc(OC)c(CN4CCC(CN5CCC6(CC5)CN(c5ccc7c(c5)C(=O)N(C5CCC(=O)NC5=O)C7)C6)CC4)c(OC)c3)cn(C)c(=O)c2cn1", "note": "(centres unmarked) [Compound D289]", "DC50": "< 10"}, {"smiles": "COc1cc(-c2cn(C)c(=O)c3cnc(N4CCC4)cc23)cc(OC)c1CN1CCN(c2ccc3c(c2)C(=O)N(C2CCC(=O)NC2=O)C3)CC1(C)C", "note": "(centres unmarked) [Compound D290]", "DC50": "< 10"}]}]}
